Data reported in patent publication US9861616B2, “Methods for treating respiratory diseases and formulations therefor” (priority 2013, dated 2018).

Legend:
P. aeruginosa PA12 = assay: MIC by microdilution with PaβN or EGTA, clinical isolate overexpressing efflux pumps; type: cell-based
Method: (§1) MICs of 36 clinical and laboratory strains of PA with known efflux phenotype are measured by microdilution in cation-adjusted Muller-Hinton broth (CA-MHB) or in RPMI medium (commonly used in eukaryotic cell culture). Phe-Arg-β-naphthylamide (PaβN, 50 mg/L) and EGTA 5 mM are used to inhibit efflux pumps and alter OM integrity, respectively. P. aeruginosa strain ATCC PAO1 is used as reference. PA12 is a clinical strain overexpressing the 4 main efflux systems (MexAB, MexCD, MexEF, MexXY), PA403 is a laboratory strain deleted in the genes coding for the 4 efflux systems. A series of reference strains or of clinical isolates for which the expression of genes coding for efflux pumps is known is also used for MICs determinations. MICs are measured by microdilution in MH broth or in RPMI medium (used for eukaryotic cells culture) supplemented with 10% of fetal calf serum, or in MH broth supplemented by increasing amounts of serum. EGTA (5 mM) was used as a chelating agent (disrupting outer membrane integrity) and PaβN (50 mg/L) as an unspecific efflux inhibitor.

P. aeruginosa (PA) = assay: MIC by microdilution, 36 clinical and laboratory strains with known efflux phenotype; type: cell-based
Method: as §1

[1] = system: MRSA strains from CF patients; assay: Microdilution MICs against 40 MRSA strains from CF patients; type: cell-based, S. aureus
Method: Two strains each of mucoid P. aeruginosa (both pyocyanin positive) and […] MRSA (only one strain with gold colonies) isolated from patients at a CF clinic were tested. Additionally, 2 B. cepacia strains were acquired, from Hershey Medical Center. All strains were identified by standard methods. Only one strain per patient was tested. MLVA was done on all strains to examine clonality, and confirmed that examination is not taking place on only one or a few clones. Strains will be stored in skim milk at −70° C. until use.
Original MICs of each strain to CEM-101 and other comparators were tested by CLSI microdilution methodology. Trays were obtained from Trek, Inc., Cleveland, Ohio. Time-kill macrobroth MIC dilution by CLSI was performed for all synergy testing.

IL-8 (CXCL8) release = assay: LPS-induced IL-8 (CXCL8) release in PMA-differentiated U937 cells (ELISA); type: cell-based, human
Method: Effects of macrolides on lipopolysaccharide (LPS)-induced CXCL8 release in PMA-differentiated U937 cells. […] LPS-induced CXCL8 release was evaluated by ELISA. Values represent means of three experiments±SEM. ^##p<0.01 (vs. non-treatment control), *p<0.05, **p<0.01 (vs. treatment with LPS only).
The human monocytic cell line U937 was obtained from the American Type Culture Collection (ATCC, Rockville, Md.). PBMCs from COPD patients were obtained from Brompton hospital and separated by AccuSPIN (Sigma-Aldrich). Cells were cultured in complete growth medium (RPMI 1640) (Sigma-Aldrich) supplemented with 10% fetal bovine serum (FBS) and 1% L-glutamine at 37° C. in a humidified atmosphere with 5% CO2. U937 cells were differentiated into adherent macrophage-like morphology by exposure to PMA (50 ng/mL) for 48 hrs in complete growth medium. Cell viability was assessed microscopically by trypan blue staining. Cell toxicity was determined by MTT assay as needed. This study was approved by the ethics committee of the Royal Brompton Hospitals, and all subjects gave written informed consent.
TNFα and IL-8 concentrations in the supernatant of cell cultures were determined by sandwich ELISA according to the manufacturer's instructions (R&D Systems Europe, Abingdon, UK).
The results were expressed as the mean±SEM. Comparisons of data in two groups were performed using the Student's t test or the Wilcoxon signed rank test. Multiple comparisons were made by one-way ANOVA with post hoc test (Dunnett's) as appropriate. The difference was considered significant at p<0.05. IC50 values (50% inhibitory concentration) for macrolides for production of cytokines or MMP9 were calculated using Prism 4.0 (GraphPad Software Inc., San Diego, Calif.).

[2] = 40 MRSA strains from CF patients

CC[C@H]1OC(=O)[C@@](C)(F)C(=O)[C@H](C)[C@@H](O[C@@H]2O[C@H](C)C[C@H](N(C)C)[C@H]2O)[C@](C)(OC)C[C@@H](C)C(=O)[C@H](C)[C@H]2N(CCCCn3cc(-c4cccc(N)c4)nn3)C(=O)O[C@]12C [CEM-101, solithromycin]
2 µg/mL: MIC (P. aeruginosa (PA); strain 1, efflux AB+, RPMI) | MIC (P. aeruginosa (PA); strain 11, efflux AB + CD+, RPMI) | MIC (P. aeruginosa (PA); strain 156, efflux EF + XY+, RPMI) | MIC (P. aeruginosa (PA); strain 333A, efflux AB + EF+, RPMI) | MIC (P. aeruginosa (PA); strain 335, efflux AB + EF+, RPMI) | MIC (P. aeruginosa (PA); strain 391, efflux EF−, RPMI) | MIC (P. aeruginosa (PA); strain 395, efflux HI−, RPMI) | MIC (P. aeruginosa (PA); strain 396, ompH−, RPMI) | MIC (P. aeruginosa (PA); strain 397, efflux AB−, MHB) | MIC (P. aeruginosa (PA); strain 398, efflux CD−, RPMI) | MIC (P. aeruginosa (PA); strain 401, ompH−, MHB) | MIC (P. aeruginosa (PA); strain 401, ompH−, RPMI)
4 µg/mL: MIC (P. aeruginosa (PA); strain 4, efflux XY+, RPMI) | MIC (P. aeruginosa (PA); strain 12, efflux AB + CD + EF + XY+, RPMI) | MIC (P. aeruginosa (PA); strain 16, efflux AB + XY+, RPMI) | MIC (P. aeruginosa (PA); strain 21, efflux AB+, RPMI) | MIC (P. aeruginosa (PA); strain 22, efflux XY+, RPMI) | MIC (P. aeruginosa (PA); strain 40, efflux EF+, RPMI) | MIC (P. aeruginosa (PA); strain 41, efflux CD+, RPMI) | MIC (P. aeruginosa (PA); strain 48, efflux CD + EF + XY+, RPMI) | MIC (P. aeruginosa (PA); strain 49, efflux CD + EF + XY+, RPMI) | MIC (P. aeruginosa (PA); strain 63, efflux AB + EF + XY+, RPMI) | MIC (P. aeruginosa (PA); strain 68, efflux AB + XY+, RPMI) | MIC (P. aeruginosa (PA); strain 133, efflux EF + XY+, RPMI) | MIC (P. aeruginosa (PA); strain 168B, efflux CD + XY+, RPMI) | MIC (P. aeruginosa (PA); strain 207, efflux AB + EF + XY+, RPMI) | MIC (P. aeruginosa (PA); strain 266B, efflux AB + CD+, RPMI) | MIC (P. aeruginosa (PA); strain 394, efflux XY−, RPMI) | MIC (P. aeruginosa (PA); strain 398, efflux CD−, MHB) | MIC (P. aeruginosa (PA); strain 400, efflux XY−, MHB) | MIC (P. aeruginosa (PA); strain 403, efflux AB − CD − EF − XY−, MHB) | MIC (P. aeruginosa (PA); strain 405, efflux AB − CD − EF − XY−, MHB) | MIC (P. aeruginosa (PA); strain PAO1, REFERENCE, RPMI)
≥ 16 µg/mL: MICs against the remaining organisms ([1]; remaining 19 of 40 MRSA strains)
smaller difference: difference in MIC in the presence of efflux pump inhibitors (P. aeruginosa (PA); compared with the other macrolides, Table 2 strains)
128 µg/mL: MIC (P. aeruginosa (PA); strain 1, efflux AB+, MHB) | MIC (P. aeruginosa (PA); strain 4, efflux XY+, MHB) | MIC (P. aeruginosa (PA); strain 12, efflux AB + CD + EF + XY+, MHB) | MIC (P. aeruginosa (PA); strain 21, efflux AB+, MHB) | MIC (P. aeruginosa (PA); strain 48, efflux CD + EF + XY+, MHB) | MIC (P. aeruginosa (PA); strain 49, efflux CD + EF + XY+, MHB) | MIC (P. aeruginosa (PA); strain 168B, efflux CD + XY+, MHB) | MIC (P. aeruginosa (PA); strain 333A, efflux AB + EF+, MHB) | MIC (P. aeruginosa (PA); strain 335, efflux AB + EF+, MHB) | MIC (P. aeruginosa (PA); strain 434, efflux AB + CD + XY+, MHB) | MIC (P. aeruginosa (PA); strain PAO1, REFERENCE, MHB)
4 mg/L: MIC (P. aeruginosa PA12; PA12, CA-MHB, PaβN 50 mg/L) | MIC (P. aeruginosa PA12; PA12, RPMI, PaβN 50 mg/L) | MIC (P. aeruginosa PA12; PA12, RPMI, control conditions (CT))
256 µg/mL: MIC (P. aeruginosa (PA); strain 2, efflux CD+, MHB) | MIC (P. aeruginosa (PA); strain 41, efflux CD+, MHB) | MIC (P. aeruginosa (PA); strain 266B, efflux AB + CD+, MHB)
16 mg/L: MIC (P. aeruginosa PA12; PA12, CA-MHB, EGTA 5 mM)
32 µg/mL: MIC (P. aeruginosa (PA); strain 16, efflux AB + XY+, MHB) | MIC (P. aeruginosa (PA); strain 40, efflux EF+, MHB) | MIC (P. aeruginosa (PA); strain 207, efflux AB + EF + XY+, MHB) | MIC (P. aeruginosa (PA); strain 391, efflux EF−, MHB) | MIC (P. aeruginosa (PA); strain 394, efflux XY−, MHB)
64 µg/mL: MIC (P. aeruginosa (PA); strain 22, efflux XY+, MHB) | MIC (P. aeruginosa (PA); strain 63, efflux AB + EF + XY+, MHB) | MIC (P. aeruginosa (PA); strain 68, efflux AB + XY+, MHB) | MIC (P. aeruginosa (PA); strain 133, efflux EF + XY+, MHB) | MIC (P. aeruginosa (PA); strain 156, efflux EF + XY+, MHB) | MIC (P. aeruginosa (PA); strain 395, efflux HI−, MHB)
0.25 µg/mL: MIC50 [1, 2]
1 µg/mL: MIC (P. aeruginosa (PA); strain 3, efflux EF+, RPMI) | MIC (P. aeruginosa (PA); strain 392, efflux CD−, RPMI) | MIC (P. aeruginosa (PA); strain 397, efflux AB−, RPMI) | MIC (P. aeruginosa (PA); strain 399, efflux AB − EF−, RPMI) | MIC (P. aeruginosa (PA); strain 400, efflux XY−, RPMI) | MIC (P. aeruginosa (PA); strain 403, efflux AB − CD − EF − XY−, RPMI) | MIC (P. aeruginosa (PA); strain 405, efflux AB − CD − EF − XY−, RPMI)
8 µg/mL: MIC (P. aeruginosa (PA); strain 2, efflux CD+, RPMI) | MIC (P. aeruginosa (PA); strain 3, efflux EF+, MHB) | MIC (P. aeruginosa (PA); strain 396, ompH−, MHB) | MIC (P. aeruginosa (PA); strain 399, efflux AB − EF−, MHB) | MIC (P. aeruginosa (PA); strain 434, efflux AB + CD + XY+, RPMI)
≧16 μg/mL: MIC90 [1, 2]
16 µg/mL: MIC (P. aeruginosa (PA); strain 11, efflux AB + CD+, MHB) | MIC (P. aeruginosa (PA); strain 392, efflux CD−, MHB)
32 mg/L: MIC (P. aeruginosa PA12; PA12, CA-MHB, control conditions (CT))
52.5%: share of strains against which active ([1]; 21 of the 40 MRSA strains, MICs 0.06-0.25)
1 mg/L: MIC (P. aeruginosa PA12; PA12, RPMI, EGTA 5 mM)
significantly inhibited: effect on CXCL8 production (IL-8 (CXCL8) release; at 100 μM)
0.06 to 0.25 µg/mL: MICs against the strains it was active against ([1]; 21 of the 40 MRSA strains)
78.2 ± 9.5 µM: IC50 (IL-8 (CXCL8) release; PMA-differentiated U937 cells, read-out: IC50, LPS-induced IL-8 (CXCL8) release)
